Experiments:
[1] = target: Leukotriene B4 receptor (Cavia porcellus); test: Inhibition of leukotriene B4 (LTB4) binding to guinea pig spleen
Leukotriene B4 receptor = Leukotriene B4 receptor (Homo sapiens, UniProt Q9NPC1+Q15722); test: Inhibition of LTB4 receptor induced chemotaxis of isolated human neutrophils; format: functional
Homo sapiens [2] = species: Homo sapiens; test: Compound was evaluated for the inhibition of LTB4 receptor -induced chemotaxis of isolated human neutrophils; IA means inactive; format: functional
[3] = system: Leukotriene B4 receptor (Cavia porcellus); test: Compound was evaluated for the inhibition of Leukotriene B4 (LTB4) receptor binding to guinea pig spleen derived receptor (GPS); IA means inactive
Homo sapiens [4] = species: Homo sapiens; test: Antagonistic activity was evaluated against LT B4 on human neutrophils; format: functional
Homo sapiens [5] = species: Homo sapiens; test: Antagonistic activity was evaluated against LT D4 on human neutrophils; format: functional

Row | IC50 [1] | IC50 (Leukotriene B4 receptor) | SMILES | further results
1 | 1.3 µM | 3.4 µM | CC(C)(C(=O)O)c1ccc2c(c1)OC[C@H](Cc1ccccc1)[C@H]2O (stereo in doubt; 8) | –
2 | – | – | CC(C(=O)O)c1ccc2c(c1)[C@H](O)[C@@H](Cc1ccccc1)CO2 (stereo partly drawn) | IC50 (Homo sapiens [2]): Not Active; IC50 [3]: Not Active
3 | 34 µM | 20 µM | CC(C)(C(=O)O)c1ccc2c(c1)OC[C@H](CC1CCCCC1)[C@H]2O | –
4 | 6 µM | 9.4 µM | CC(C)(C(=O)O)c1ccc2c(c1)OC[C@H](Cc1cccc(F)c1)[C@H]2O | –
5 | > 100 µM | > 50 µM | OCc1ccc2c(c1)OC[C@H](Cc1ccccc1)[C@H]2O | –
6 | > 100 µM | 1.5 µM | CNC(=O)C(C)(C)c1ccc2c(c1)OC[C@H](Cc1ccccc1)[C@H]2O | –
7 | 40 µM | 12.5 µM | CC(C)(C(=O)O)c1ccc2c(c1)OC[C@H](Cc1ccccc1)[C@H]2O (stereo in doubt) | –
8 | 20 µM | > 100 µM | O=C(O)c1ccc2c(c1)OC[C@H](Cc1ccccc1)[C@H]2O | –
9 | 2.3 µM | 5.7 µM | CC(C)(C(=O)O)c1ccc2c(c1)OC[C@H](Cc1ccccc1)[C@H]2O (stereo in doubt; 7) | –
10 | 4 µM | 5.4 µM | CC(C)(C(=O)O)c1ccc2c(c1)OC[C@H](Cc1ccc(Cl)cc1)[C@H]2O | –
11 | 17 µM | 25 µM | CC(C)(C(=O)O)c1ccc2c(c1)OC[C@H](Cc1ccccc1)C2 | –
12 | 1.2 µM | 2.4 µM | CC(C)(C(=O)O)c1ccc2c(c1)OC[C@H](Cc1ccccc1)[C@H]2O (stereo in doubt; 6) | –
13 | 8 µM | 6.2 µM | CC(C)(C(=O)O)c1ccc2c(c1)OC[C@H](Cc1ccc(F)cc1F)[C@H]2O | –
14 | 13 µM | 16.4 µM | CC(C(=O)O)c1ccc2c(c1)OC[C@H](Cc1ccccc1)[C@H]2O (stereo partly drawn) | IC50 (Homo sapiens [4]): 0.79 µM; IC50 (Homo sapiens [5]): > 100 µM
15 | 40 µM | 1.7 µM | CC(C)(C(=O)N1CCCC1)c1ccc2c(c1)OC[C@H](Cc1ccccc1)[C@H]2O | –
16 | 12 µM | 18.5 µM | COc1ccc(C[C@H]2COc3cc(C(C)C(=O)O)ccc3[C@@H]2O)cc1 (stereo partly drawn) | –
17 | 8 µM | 2.6 µM | CC(C)(C(=O)O)c1ccc2c(c1)OC[C@H](Cc1ccccn1)[C@H]2O | –
18 | 0.29 µM | 0.17 µM | CCC(CC)(C(=O)O)c1ccc2c(c1)OC[C@H](Cc1ccccc1)[C@H]2O | –
19 | > 100 µM | > 50 µM | OCCc1ccc2c(c1)OC[C@H](Cc1ccccc1)[C@H]2O | –
20 | 100 µM | 7.2 µM | CC(C)c1ccc2c(c1)OC[C@H](Cc1ccccc1)[C@H]2O | –
21 | 30 µM | 34 µM | O=C(O)Cc1ccc2c(c1)OC[C@H](Cc1ccccc1)[C@H]2O (stereo in doubt; 5) | –
22 | 12 µM | 16 µM | O=C(O)CCc1ccc2c(c1)OC[C@H](Cc1ccccc1)[C@H]2O | –
23 | 100 µM | > 50 µM | O[C@H]1c2ccccc2OC[C@@H]1Cc1ccccc1 | –
24 | 53 µM | 12.2 µM | COc1cccc(C[C@H]2COc3cc(C(C)C(=O)O)ccc3[C@@H]2O)c1 (stereo partly drawn) | –
25 | 25 µM | 12 µM | O=C(O)Cc1ccc2c(c1)OC[C@H](Cc1ccccc1)[C@H]2O (stereo in doubt; 4) | –
26 | 2.7 µM | 14 µM | O=C(O)C1(c2ccc3c(c2)OC[C@H](Cc2ccccc2)[C@H]3O)CCC1 | –

Row | SMILES | IC50 [1] | IC50 (Leukotriene B4 receptor) | further results
27 | O=C(O)C1(c2ccc3c(c2)OC[C@H](Cc2ccccc2)[C@H]3O)CCCCC1 (stereo in doubt; 16) | 0.25 µM | 0.17 µM | –
28 | O=C(O)C1(c2ccc3c(c2)OC[C@H](Cc2ccccc2)[C@H]3O)CCCC1 (stereo in doubt; 12) | 0.42 µM | 0.078 µM | –
29 | O=C(O)C1(c2ccc3c(c2)OC[C@H](C(c2ccccc2)c2ccccc2)[C@H]3O)CCCC1 | 5.4 µM | 10 µM | –
30 | O=C(O)C1(c2ccc3c(c2)OC[C@H](Cc2ccccc2)[C@H]3O)CCCC1 (stereo in doubt; 11) | 0.32 µM | 0.16 µM | –
31 | O=C(O)C1(c2ccc3c(c2)OC[C@H](Cc2ccccc2)[C@H]3O)CCCCC1 (stereo in doubt; 14) | 0.2 µM | 0.38 µM | –
32 | O=C(O)C1(c2ccc3c(c2)OC[C@H](Cc2cccs2)[C@H]3O)CCCC1 | 0.65 µM | 0.33 µM | –
33 | O=C(O)C1(c2ccc3c(c2)OC[C@H](Cc2ccc(C(F)(F)F)cc2)[C@H]3O)CCCC1 | 12 µM | 6 µM | –
34 | O=C(O)C1(c2ccc3c(c2)OC[C@H](Cc2ccccc2)[C@H]3O)CCCC1 (stereo in doubt; 13) | 0.29 µM | 0.098 µM | –
35 | O[C@H]1c2ccc(C3(C4N=NN=N4)CCCC3)cc2OC[C@@H]1C(c1ccccc1)C1CCCCC1 (stereo partly drawn) | 0.35 µM | 1.5 µM | –
36 | O=C(O)C1(c2ccc3c(c2)OC[C@H](Cc2ccccc2)[C@H]3O)CCCC1 (stereo in doubt) | 3.4 µM | 1.1 µM | –
37 | O=C(O)C1(c2ccc3c(c2)OC[C@H](Cc2ccccc2)[C@H]3O)CCCCC1 (stereo in doubt; 15) | 0.24 µM | 0.23 µM | –
38 | O=C(O)C1(c2ccc3c(c2)OC[C@H](CCc2ccccc2)[C@H]3O)CCCC1 | 0.49 µM | 0.3 µM | –
39 | O=C(O)C1(c2ccc3c(c2)OC[C@H](Sc2ccccc2)[C@H]3O)CCCC1 | 0.56 µM | 0.5 µM | –
40 | O=C(O)C1(c2ccc3c(c2)OC[C@H](Cc2ccc4ccccc4n2)[C@H]3O)CCCC1 | 8.8 µM | > 50 µM | –
41 | O=C(O)C1(c2ccc3c(c2)OC[C@H](CCc2ccc(-c4ccccc4)cc2)[C@H]3O)CCCC1 | 3.2 µM | 5.8 µM | –
42 | O=C(O)C1(c2ccc3c(c2)OC[C@H](Cc2ccc(F)cc2F)[C@H]3O)CCCC1 | 2 µM | 1 µM | –
43 | O=C(O)C1(c2ccc3c(c2)OC[C@H](CCCc2ccccc2)[C@H]3O)CCCC1 | 2.7 µM | 4.2 µM | –

From ChEMBL document CHEMBL1130371, “3-Substituted-4-hydroxy-7-chromanylacetic acid derivatives as antagonists of the leukotriene B4 (LTB4) receptor” (Bioorg Med Chem Lett, 1997)
